From patent US7276337B2, “Compositions and methods for visual ribonuclease detection assays” (Integrated DNA Technologies, Inc., priority 2000, dated 2007)

Columns and labels:
RNase 1 [1] = molecular target: T1, RNase 1 (Escherichia coli, UniProt P21338); assay: Visual detection ribonuclease assay, cleavage of Substrate by RNase 1; assay type: biochemical, E. coli; settings: final dilution factors of stock 10^−2 to 10^−7; Substrate 500 nM; room temperature 10 minutes
Protocol: It is commonly accepted that fluorometry provides for high sensitivity. To be useful, the visual method must also offer high sensitivity. Assays were conducted using the method of the invention with visual detection. Substrate SEQ ID NO:30 was mixed in 1× Assay Buffer at a concentration of 500 nM (50 pmoles ODN in 100 ul volume) in thin-walled, UV transparent tubes. […] Dilutions of stock RNase A, RNase 1, and RNase T1 were made in water. Undiluted and diluted nuclease (1 ul) was added to respective 100 ul Assay Mixes resulting in final dilution factors of 10^−2, 10^−3, 10^−4, 10^−5, 10^−6, and 10^−7. Assays were incubated at room temperature for 10 minutes and visually examined for fluorescence emission with UV excitation. […] The experiment took about 30 minutes to perform, including 15 minutes to set-up serial dilutions, 10 minutes incubation, and 5 minutes to visualize and photograph. Thus the method of the invention allows for a rapid, simple, and convenient visual assay for the presence of ribonuclease activity.

RNase 1 [2] = molecular target: T1, RNase 1; assay: Fluorometric detection nuclease assay, RNase 1; assay type: biochemical, E. coli; settings: Substrate 50 nM, 37° C. 1 hour
Protocol: (§1) Nuclease assays were conducted using the method of the invention. The Substrate (SEQ ID NO:30) was mixed in 1× Assay Buffer at a concentration of 50 nM (150 pmoles oligonucleotide in 3 mls volume). Test nucleases were added to respective Assay Mixes, including 1 ul of RNase A (1 ug), 1 ul of RNase 1 (100 units), or 1 ul of RNase T1 (1000 units). […] Assays were set up directly in cuvettes as follows:
(§2) Assay Mixes were incubated at 37° C. for 1 hour. Assays were transferred to cuvettes and fluorescence emission at 520 nm was measured using a PTI fluorometer with 490 nm excitation. Substrate SEQ ID NO:30, a preferred Substrate of the invention, reacted with (i.e., detected) all three RNase enzymes, verifying that Substrate compositions of the invention are sensitive to a variety of RNase enzymes.
(§3) Assays were conducted using the method of the invention with fluorometric detection. Substrate SEQ ID NO:30 was mixed in 1× Assay Buffer at a concentration of 50 nM (50 pmoles ODN in 1.0 ml volume) in RNase-free disposable cuvettes. […] Dilutions of stock RNase A, RNase 1, and RNase T1 were made in water. […] Assays were incubated at 37° C. for 1 hour and examined for fluorescence emission at 520 nm using 490 nm excitation in a PTI fluorometer. […]

[3] = system: RNase A, RNase 1, and RNase T1; assay: Substrate optimization in ribonuclease assays (visual and fluorometric detection); assay type: biochemical; settings: 28 Substrate ODNs compared
Protocol: Nuclease assays were conducted using the method of the invention with both visual and fluorometric detection methods. Substrates were individually mixed in 1× Assay Buffer at a concentration of 50 nM (50 pmoles oligonucleotide in 1 ml volume) for fluorometric detection or at a concentration of 500 nM (50 pmoles of oligonucleotide in 100 ul volume) for visual detection. Test nucleases were added to respective Assay Mixes beginning at 1 ul stock reagent and proceeding with a 1:10 serial dilution until undetectable. Reaction mixes were incubated at 37° C. for 60 minutes. Fluorometric detection was performed as outlined in Example 2. Visual detection was performed as outlined in Example 1.
Different Substrates were examined for reactivity with RNase A, RNase 1, and RNase T1. A Substrate composition that contains all 4 ribonucleotide bases in an optimized sequence might be sensitive to most ribonuclease activities and could function as a stand-alone reagent for the Assay. Alternatively, a mix of Substrates could be used (for example, wherein one Substrate contains adenosine, one contains guanosine, one contains uridine, and one contains cytosine residues). Both possibilities were tested. […] Substrates having different base sequence were compared for sensitivity. […] Sequence dependence for RNase T1 was pronounced with cleavage preference being ‘gg’>‘gc’>‘ga’>‘gu’. […]

RNase T1 = RNase T1 (Aspergillus oryzae, UniProt P00651); assay: Fluorometric detection nuclease assay, RNase T1; assay type: biochemical; settings: Substrate 50 nM, 37° C. 1 hour
Protocol: as §1, §2, §3

RNase A = molecular target: T2, RNase A (Bos taurus, UniProt P61823); assay: Fluorometric detection nuclease assay, RNase A; assay type: biochemical, mammalian; settings: Substrate 50 nM
T2 sequence (P61823 27-150): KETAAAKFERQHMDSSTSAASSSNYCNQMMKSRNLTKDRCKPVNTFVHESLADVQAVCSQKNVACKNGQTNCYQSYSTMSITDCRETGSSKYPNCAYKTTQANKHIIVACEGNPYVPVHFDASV
Protocol: Nuclease assays were conducted using the method of the invention. SEQ ID NO:2 and SEQ ID NO:3 oligonucleotides were individually mixed in 1× Assay Buffer at a concentration of 50 nM (150 pmoles oligonucleotide in 3 mls volume). […] Assays were set up directly in cuvettes as follows:
Assay Mixes were incubated at 37° C. for 1 hour. Fluorescence emission spectra were measured using a PTI fluorometer with 490 nm excitation. Substrate SEQ ID NO:2 (having chimeric RNA-DNA composition) reacted with both DNase I (undesired) and RNase A (desired).
as §1, §2
Substrate SEQ ID NO:30 was mixed in 1× Assay Buffer at a concentration of 50 nM (150 pmoles oligonucleotide in 3 mls volume). RNase A was added at final concentrations of 10 ng/ml, 2 ng/ml, 1 ng/ml, and 0.4 ng/ml. […] Assay mixes were incubated at 37° C. in a cuvette directly in a PTI fluorometer. Fluorescence emission at 520 nm with 490 nm excitation was measured over time. At high nuclease concentrations, the reaction goes rapidly to completion. At lower nuclease concentrations, the reaction rate decreases but with longer incubation times an easily detectable signal is generated. Substrate concentration is fixed and input enzyme (i.e., the test sample) varies. Since the background is stable (monitored in the control reaction), use of extended incubation periods will increase the sensitivity of the assay.
Assays were conducted using the method of the invention with fluorometric detection. Substrate SEQ ID NO:30 was mixed in 1× Assay Buffer at a concentration of 50 nM (50 pmoles ODN in 1.0 ml volume) in RNase-free disposable cuvettes. […] Dilutions of stock RNase A, RNase 1, and RNase T1 were made in water. Undiluted and diluted nuclease (1 ul) was added to respective 1.0 ml Assay Mixes resulting in final dilution factors of 10^−3, 10^−4, 10^−5, 10^−6, 10^−7, 10^−8, and 10^−9. Assays were incubated at 37° C. for 1 hour and examined for fluorescence emission at 520 nm using 490 nm excitation in a PTI fluorometer. Final enzyme concentration reported notes the lowest concentration tested that was reproducibly positive with a signal:noise ratio of at least 2:1.

T1 sequence (P21338 24-268): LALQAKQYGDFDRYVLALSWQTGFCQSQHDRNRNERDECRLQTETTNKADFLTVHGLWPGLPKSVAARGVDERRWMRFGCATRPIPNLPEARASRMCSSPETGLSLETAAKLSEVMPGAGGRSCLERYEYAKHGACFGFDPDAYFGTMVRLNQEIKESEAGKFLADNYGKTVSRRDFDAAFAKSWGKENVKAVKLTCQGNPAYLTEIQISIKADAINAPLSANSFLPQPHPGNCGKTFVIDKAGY
Chain of RNase T1 (P00651 27-130): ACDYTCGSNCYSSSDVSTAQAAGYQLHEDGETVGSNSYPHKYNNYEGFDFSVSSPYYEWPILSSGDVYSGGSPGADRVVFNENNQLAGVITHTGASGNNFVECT

5′ Fluorescein-AauggcA-QSY-7 3′ (NAAUGGCAN; 5' fluorescein and 3' QSY-7 labels, nucleotide chemistry not given here) [SEQ ID NO:30]
Detection of RNase 1 activity by visual examination (RNase 1 [1]): clearly detectable
Reactivity with RNase 1 (fluorometer) (RNase 1 [2]; RNase 1 33 units/ml, emission 520 nm, 490 nm excitation): reacted
Enzyme Concentration, lowest tested reproducibly positive with signal:noise at least 2:1, RNase 1 (RNase 1 [2]; fluorometric detection, dilution factor 10^−7): 0.00001 units/ml
Relative activity / sensitivity among Substrates tested [3]: most active
Reactivity with RNase T1 (fluorometer) (RNase T1; RNase T1 333 units/ml, emission 520 nm, 490 nm excitation): reacted
Enzyme Concentration, lowest tested reproducibly positive with signal:noise at least 2:1, RNase T1 (RNase T1; fluorometric detection, dilution factor 10^−8): 0.00001 units/ml
Reactivity with RNase A (fluorometer) (RNase A; RNase A 0.33 ug/ml, 37° C. 1 hour, 490 nm excitation): reacted
Assay background (hydrolysis of the Substrate) over time (RNase A; control reaction without ribonuclease, 1× Assay Buffer, 37° C.): stable
Enzyme Concentration, lowest tested reproducibly positive with signal:noise at least 2:1, RNase A (RNase A; fluorometric detection, 37° C. 1 hour, dilution factor 10^−8): 10 pg/mL
